The results in this text go back to patent US10836725B2, “Modulators of the integrated stress pathway” (Calico Life Sciences LLC, priority 2016, dated 2020).

For one assay, the system named is ATF4 luciferase reporter. The assay is described as follows: ATF4-Luc assay in HEK293T cells carrying the ATF4 luciferase reporter (in vitro model of VWMD). Type of assay: cell-based, human. The conditions noted are these: 1 μg/mL tunicamycin, 7 hours, luminescence (One Glo). As for the experimental part:
In order to test exemplary compounds of the invention in a cellular context, a stable VWMD cell line was first constructed. The ATF4 reporter was prepared by fusing the human full-length ATF4 5′-UTR (NCBI Accession No. BC022088.2) in front of the firefly luciferase (FLuc) coding sequence lacking the initiator methionine as described in Sidrauski et al (eLife 2013). The construct was used to produce recombinant retroviruses using standard methods and the resulting viral supernatant was used to transduce HEK293T cells, which were then subsequently selected with puromycin to generate a stable cell line.
HEK293T cells carrying the ATF4 luciferase reporter were plated on polylysine coated 384-well plates (Greiner Bio-one) at 30,000 cells per well. Cells were treated the next day with 1 μg/mL tunicamycin and 200 nM of a compound of Formula (I) for 7 hours. Luminescence was measured using One Glo (Promega) as specified by the manufacturer. Cells were maintained in DMEM with L-glutamine supplemented with 10% heat-inactivated FBS (Gibco) and Antibiotic-Antimycotic solution (Gibco).
Table 2 below summarizes the EC50 data obtained using the ATF4-Luc assay for exemplary compounds of the invention.
In general terms: A reporter such as luciferase makes a cellular process visible.
Regarding `O=C(COc1ccc(Cl)c(F)c1)NC12CC(C(=O)NCCc3c[nH]c4ccccc34)(C1)C2` [Compound 194], the EC50 was under 0.25 µM.

Still in this assay, the particulars now being: Homo sapiens, HEK-293T, 1 μg/mL tunicamycin, 7 hours, luminescence (One Glo).
With `O=C(COc1ccc(Cl)c(F)c1)NC12CC(C(=O)NCc3ccc(C(F)(F)F)cn3)(C1)C2` [Compound 118, 3-[2-(4-chloro-3-fluorophenoxy)acetamido]-N-{[5-(trifluoromethyl)pyridin-2-yl]methyl}bicyclo[1.1.1]pentane-1-carboxamide], the concentration giving a half-maximal response (EC50) was under 0.25 µM.

For `O=C(COc1ccc(Cl)c(F)c1)NC12CC(C(=O)NCCc3cccnc3)(C1)C2` [Compound 242, 3-[2-(4-chloro-3-fluorophenoxy)acetamido]-N-[2-(pyridin-3-yl)ethyl]bicyclo[1.1.1]pentane-1-carboxamide], the EC50 is over 2 µM.

`CC(C)(C)c1ccc(CNC(=O)C23CC(NC(=O)COc4ccc(Cl)c(F)c4)(C2)C3)cc1` [Compound 167, N-[(4-tert-butylphenyl)methyl]-3-[2-(4-chloro-3-fluorophenoxy)acetamido]bicyclo[1.1.1]pentane-1-carboxamide]: the EC50 is over 2 µM.

As for `O=C(COc1ccc(Cl)c(F)c1)NC12CC(C(=O)NCc3c(F)cc(Cl)cc3F)(C1)C2` [Compound 181, N-[(4-chloro-2,6-difluorophenyl)methyl]-3-[2-(4-chloro-3-fluorophenoxy)acetamido]bicyclo[1.1.1]pentane-1-carboxamide], the EC50 is over 2 µM.

As for `CC(C)(C)c1ccc(CNC(=O)C23CCC(NC(=O)COc4ccc(Cl)c(F)c4)(CC2)CC3O)cc1` (stereo not shown) [Compound 137, N-[(4-tert-butylphenyl)methyl]-4-[2-(4-chloro-3-fluorophenoxy)acetamido]-2-hydroxybicyclo[2.2.2]octane-1-carboxamide], the EC50 was in the range of 0.5 to 1 µM.

Consider `Cc1noc(CNC(=O)C23CC(NC(=O)COc4ccc(Cl)c(F)c4)(C2)C3)n1` [Compound 159, 3-[2-(4-chloro-3-fluorophenoxy)acetamido]-N-[(3-methyl-1,2,4-oxadiazol-5-yl)methyl]bicyclo[1.1.1]pentane-1-carboxamide], for which the EC50 is over 2 µM.

Consider `Cc1ccnc(CNC(=O)C23CC(NC(=O)COc4ccc(Cl)c(F)c4)(C2)C3)c1` [Compound 221, 3-[2-(4-chloro-3-fluorophenoxy)acetamido]-N-[(4-methylpyridin-2-yl)methyl]bicyclo[1.1.1]pentane-1-carboxamide], for which the EC50 is over 2 µM.

As for `O=C(COc1ccc(Cl)c(F)c1)NC12CC(C(=O)NCc3ccccn3)(C1)C2` [Compound 224, 3-[2-(4-chloro-3-fluorophenoxy)acetamido]-N-[(pyridin-2-yl)methyl]bicyclo[1.1.1]pentane-1-carboxamide], the EC50 was over 2 µM.

Consider `NS(=O)(=O)c1ccc(CCNC(=O)C23CC(NC(=O)COc4ccc(Cl)c(F)c4)(C2)C3)cc1` [Compound 199, 3-[2-(4-chloro-3-fluorophenoxy)acetamido]-N-[2-(4-sulfamoylphenyl)ethyl]bicyclo[1.1.1]pentane-1-carboxamide], for which the EC50 was over 2 µM.

For the molecule `COc1ccc(CNC(=O)C23CC(NC(=O)COc4ccc(Cl)c(F)c4)(C2)C3)cc1Cl` [Compound 249, 3-[2-(4-chloro-3-fluorophenoxy)acetamido]-N-[(3-chloro-4-methoxyphenyl)methyl]bicyclo[1.1.1]pentane-1-carboxamide], the EC50 is over 2 µM.

With `CCCc1cc(CNC(=O)C23CC(NC(=O)COc4ccc(Cl)c(F)c4)(C2)C3)on1` [Compound 247, 3-[2-(4-chloro-3-fluorophenoxy)acetamido]-N-[(3-propyl-1,2-oxazol-5-yl)methyl]bicyclo[1.1.1]pentane-1-carboxamide], the EC50 is over 2 µM.

On to `Cc1cccc(-c2nc(CNC(=O)C34CC(NC(=O)COc5ccc(Cl)c(F)c5)(C3)C4)cs2)c1` [Compound 214, 3-[2-(4-chloro-3-fluorophenoxy)acetamido]-N-{[2-(3-methylphenyl)-1,3-thiazol-4-yl]methyl}bicyclo[1.1.1]pentane-1-carboxamide], for which the EC50 is over 2 µM.

Take `CCOc1ccc(CNC(=O)C23CC(NC(=O)COc4ccc(Cl)c(F)c4)(C2)C3)cc1` [Compound 240, 3-[2-(4-chloro-3-fluorophenoxy)acetamido]-N-[(4-ethoxyphenyl)methyl]bicyclo[1.1.1]pentane-1-carboxamide]: the EC50 was over 2 µM.

Regarding `Cc1ccc(C)c(CNC(=O)C23CC(NC(=O)COc4ccc(Cl)c(F)c4)(C2)C3)c1` [Compound 190, 3-[2-(4-chloro-3-fluorophenoxy)acetamido]-N-[(2,5-dimethylphenyl)methyl]bicyclo[1.1.1]pentane-1-carboxamide], the EC50 is over 2 µM.

For `COc1ccc(CCNC(=O)C23CC(NC(=O)COc4ccc(Cl)c(F)c4)(C2)C3)cc1Cl` [Compound 248, 3-[2-(4-chloro-3-fluorophenoxy)acetamido]-N-[2-(3-chloro-4-methoxyphenyl)ethyl]bicyclo[1.1.1]pentane-1-carboxamide], the EC50 is over 2 µM.

As for `Cn1nccc1CNC(=O)C12CC(NC(=O)COc3ccc(Cl)c(F)c3)(C1)C2` [Compound 184, 3-[2-(4-chloro-3-fluorophenoxy)acetamido]-N-[(1-methyl-1H-pyrazol-5-yl)methyl]bicyclo[1.1.1]pentane-1-carboxamide], the EC50 is over 2 µM.

With `O=C(COc1ccc(Cl)c(F)c1)NC12CCC(C(=O)NCc3cccc(F)c3)(CC1)C(O)C2` (stereo not shown) [Compound 129, 4-[2-(4-chloro-3-fluorophenoxy)acetamido]-N-[(3-fluorophenyl)methyl]-2-hydroxybicyclo[2.2.2]octane-1-carboxamide], the EC50 was 0.25 to 0.5 µM.

Turning to `O=C(COc1ccc(Cl)c(F)c1)NC12CCC(C(=O)NCc3cncc(F)c3)(CC1)C(O)C2` (stereo not shown) [Compound 112, 4-[2-(4-chloro-3-fluorophenoxy)acetamido]-N-[(5-fluoropyridin-3-yl)methyl]-2-hydroxybicyclo[2.2.2]octane-1-carboxamide], the EC50 was over 2 µM.

Take `O=C(COc1ccc(Cl)c(F)c1)NC12CC(C(=O)NCc3ccccc3F)(C1)C2` [Compound 210, 3-[2-(4-chloro-3-fluorophenoxy)acetamido]-N-[(2-fluorophenyl)methyl]bicyclo[1.1.1]pentane-1-carboxamide]: the EC50 is over 2 µM.

`O=C(COc1ccc(Cl)c(F)c1)NC12CCC(C(=O)NCc3ccc(C(F)(F)F)cn3)(CC1)[C@@H](O)C2` (single isomer, unassigned) [Compound 114]: the EC50 was under 0.25 µM.

On to `O=C(COc1ccc(Cl)c(F)c1)NC12CCC(C(=O)NCc3ccc(C(F)(F)F)cc3)(CC1)C(O)C2` (stereo not shown) [Compound 110, 4-[2-(4-chloro-3-fluorophenoxy)acetamido]-2-hydroxy-N-{[4-(trifluoromethyl)phenyl]methyl}bicyclo[2.2.2]octane-1-carboxamide], for which the EC50 was under 0.25 µM.

In the case of `Cc1ccc(CNC(=O)C23CCC(NC(=O)COc4ccc(Cl)c(F)c4)(CC2)CC3O)cc1` (stereo not shown) [Compound 125, 4-[2-(4-chloro-3-fluorophenoxy)acetamido]-2-hydroxy-N-[(4-methylphenyl)methyl]bicyclo[2.2.2]octane-1-carboxamide], the EC50 is under 0.25 µM.

As to `O=C(COc1ccc(Cl)c(F)c1)NC12CCC(C(=O)NCc3ccc(OC(F)F)cn3)(CC1)C(O)C2` (stereo not shown) [Compound 146, 4-[2-(4-chloro-3-fluorophenoxy)acetamido]-N-{[5-(difluoromethoxy)pyridin-2-yl]methyl}-2-hydroxybicyclo[2.2.2]octane-1-carboxamide], the EC50 was under 0.25 µM.

On to `Cc1cccc(OCCNC(=O)C23CC(NC(=O)COc4ccc(Cl)cc4)(C2)C3)c1` [Compound 101, 3-[2-(4-chlorophenoxy)acetamido]-N-[2-(3-methylphenoxy)ethyl]bicyclo[1.1.1]-pentane-1-carboxamide], for which the EC50 lay in the range of 1 to 2 µM.

On to `COc1ccc(OC)c(CNC(=O)C23CC(NC(=O)COc4ccc(Cl)c(F)c4)(C2)C3)c1` [Compound 236, 3-[2-(4-chloro-3-fluorophenoxy)acetamido]-N-[(2,5-dimethoxyphenyl]methyl]bicyclo[1.1.1]pentane-1-carboxamide], for which the EC50 is over 2 µM.

`CC(C)Oc1ccc(CNC(=O)C23CC(NC(=O)COc4ccc(Cl)c(F)c4)(C2)C3)cc1` [Compound 207]: the EC50 was over 2 µM.

`C[C@@H](NC(=O)C12CC(NC(=O)COc3ccc(Cl)c(F)c3)(C1)C2)c1ccc(Cl)cc1` [Compound 198, 3-[2-(4-chloro-3-fluorophenoxy)acetamido]-N-[(1R)-1-(4-chlorophenyl)ethyl]bicyclo[1.1.1]pentane-1-carboxamide]: the half-maximal effective concentration (EC50) is over 2 µM.

As to `Cc1cccc([C@H](C)NC(=O)C23CC(NC(=O)COc4ccc(Cl)c(F)c4)(C2)C3)c1` [Compound 187, 3-[2-(4-chloro-3-fluorophenoxy)acetamido]-N-[(1S)-1-(3-methylphenyl)ethyl]bicyclo[1.1.1]pentane-1-carboxamide], the EC50 was over 2 µM.

For `Cc1cccc(CNC(=O)C23CC(NC(=O)COc4ccc(Cl)c(F)c4)(C2)C3)c1` [Compound 166, 3-[2-(4-chloro-3-fluorophenoxy)acetamido]-N-[(3-methylphenyl)methyl]bicyclo[1.1.1]pentane-1-carboxamide], the EC50 is over 2 µM.

On to `CC(Cc1ccc(F)cc1)NC(=O)C12CC(NC(=O)COc3ccc(Cl)c(F)c3)(C1)C2` (stereo not shown) [Compound 171, 3-[2-(4-chloro-3-fluorophenoxy)acetamido]-N-[1-(4-fluorophenyl)propan-2-yl]bicyclo[1.1.1]pentane-1-carboxamide], for which the EC50 fell in the range of 1 to 2 µM.

A word on the EC50: it is the concentration needed to bring the measured effect to its halfway point.
